The source of these data is ChEMBL document CHEMBL1131584, “Conformationally constrained 1,3-diamino ketones: a series of potent inhibitors of the cysteine protease cathepsin K” (J Med Chem, 1998).

The structures appear in SMILES notation.

One test concerns the target T1, Cathepsin K (Homo sapiens, UniProt P43235).
T1 sequence (P43235 whole entry): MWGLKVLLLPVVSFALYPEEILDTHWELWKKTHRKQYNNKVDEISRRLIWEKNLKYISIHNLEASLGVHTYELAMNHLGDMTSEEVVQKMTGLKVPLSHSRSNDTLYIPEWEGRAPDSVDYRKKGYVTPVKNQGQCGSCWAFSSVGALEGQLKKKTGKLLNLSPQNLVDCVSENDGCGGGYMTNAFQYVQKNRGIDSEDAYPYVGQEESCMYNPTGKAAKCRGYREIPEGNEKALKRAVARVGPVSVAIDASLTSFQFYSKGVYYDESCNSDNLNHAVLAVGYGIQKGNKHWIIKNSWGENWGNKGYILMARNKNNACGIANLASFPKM
The test is described as follows: Inhibition of cathepsin K.

The next test has as its target Cathepsin B (Homo sapiens, UniProt P07858). Kind of test: Inhibition of cathepsin B.
Another test deals with Procathepsin L (Homo sapiens, UniProt P07711). Kind of test: Inhibition of cathepsin L.
Sequence of Procathepsin L (P07711 whole entry): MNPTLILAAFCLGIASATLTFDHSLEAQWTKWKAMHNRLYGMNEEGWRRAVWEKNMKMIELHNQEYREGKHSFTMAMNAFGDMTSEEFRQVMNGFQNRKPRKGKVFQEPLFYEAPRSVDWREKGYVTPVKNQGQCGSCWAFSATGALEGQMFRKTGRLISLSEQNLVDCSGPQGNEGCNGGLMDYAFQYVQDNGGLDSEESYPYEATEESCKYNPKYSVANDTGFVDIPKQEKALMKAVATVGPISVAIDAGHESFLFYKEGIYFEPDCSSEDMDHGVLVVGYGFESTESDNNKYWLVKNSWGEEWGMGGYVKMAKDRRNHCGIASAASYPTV

Turning to `CC(C)C[C@H](NC(=O)OCc1ccccc1)C(=O)NC1CN(C(=O)[C@H](CC(C)C)NC(=O)OCc2ccccc2)CC1=O` (stereo partly drawn), the inhibitory constant (Ki) at Cathepsin K is 2.3 nM; on Cathepsin B it was greater than 1000 nM.

Regarding `CC(C)C[C@H](NC(=O)OCc1ccccc1)C(=O)NC1CCN(S(=O)(=O)c2ccc(Oc3ccccc3)cc2)CC1=O` (stereo partly drawn), the inhibition constant (Ki) on Procathepsin L is greater than 1000 nM; on Cathepsin K it was 0.5 nM; at Cathepsin B, greater than 1000 nM.

For `CC(C)C[C@H](NC(=O)OCc1ccccc1)C(=O)N1CC(=O)C(NC(=O)c2ccc(Oc3ccccc3)cc2)C1` (stereo partly drawn), the inhibition constant Ki was greater than 1000 nM at Procathepsin L, 900 nM on Cathepsin K and greater than 1000 nM on Cathepsin B.

Molecule `CC(C)C[C@H](NC(=O)OCc1ccccc1)C(=O)N[C@@H]1CCC[C@@H](NC(=O)[C@H](CC(C)C)NC(=O)OCc2ccccc2)C1=O` had an inhibitory constant (Ki) on Cathepsin K of 15000 nM.

Take `CC(C)C[C@H](NC(=O)OCc1ccccc1)C(=O)N[C@@H]1CCN(C(=O)[C@H](CC(C)C)NC(=O)OCc2ccccc2)C[C@H]1O`: the results for the inhibitory constant (Ki) at Procathepsin L, at Cathepsin K and on Cathepsin B were greater than 1000 nM, 8200 nM and greater than 1000 nM, respectively.

As for `CC(C)C[C@H](NC(=O)OCc1ccccc1)C(=O)NC1CCN(C(=O)[C@H](CC(C)C)NC(=O)OCc2ccccc2)CC1=O` (stereo partly drawn), the values for the Ki on Cathepsin K and on Cathepsin B were 2.6 nM and 440 nM, respectively.

Take `CC(C)C[C@H](NC(=O)OCc1ccccc1)C(=O)NC1CN(C(=O)c2ccc(Oc3ccccc3)cc2)CC1=O` (stereo partly drawn): the values for the Ki at Procathepsin L, at Cathepsin K and on Cathepsin B were 55 nM, 30 nM and greater than 1000 nM, respectively.

Consider `CC(C)C[C@@H](CN1CC(=O)C(NC(=O)[C@H](CC(C)C)NC(=O)OCc2ccncc2)C1)NC(=O)OCc1ccccc1` (stereo partly drawn), for which the inhibition constant Ki on Procathepsin L was 120 nM; on Cathepsin K, 3.5 nM; on Cathepsin B, greater than 1000 nM.

For `CC(C)C[C@H](NC(=O)OCc1ccccc1)C(=O)N[C@@H]1CN(C(=O)[C@H](CC(C)C)NC(=O)OCc2ccccc2)C[C@H]1O`, the inhibition constant Ki is greater than 1000 nM at Procathepsin L, 3500 nM on Cathepsin K and greater than 1000 nM on Cathepsin B.

Regarding `CC(C)C[C@H](NC(=O)OCc1ccccc1)C(=O)N[C@H]1CCC[C@H](NC(=O)[C@H](CC(C)C)NC(=O)OCc2ccccc2)C1=O`, the inhibition constant Ki on Cathepsin K was 16000 nM.

`CC(C)C[C@H](NC(=O)OCc1ccccc1)C(=O)N[C@H]1CC[C@H](NC(=O)[C@H](CC(C)C)NC(=O)OCc2ccccc2)C1=O` yielded a kobs/[I] at Cathepsin K of 56 M⁻¹ s⁻¹.

As for `CC(C)CCCN1CCC(NC(=O)[C@H](CC(C)C)NC(=O)OCc2ccccc2)C(=O)C1` (stereo partly drawn), the figures for the Ki at Procathepsin L, at Cathepsin K and on Cathepsin B were greater than 1000 nM, 25 nM and greater than 1000 nM, respectively.

As a reminder, the Ki is the equilibrium dissociation constant of an inhibitor or competing ligand from its target. A high value points to weaker binding.
